What all share (assay type): cell-free
The target of test [1] is Glycogen synthase kinase-3 alpha (Homo sapiens) (UniProt P49840). Put plainly: Inhibition of human GSK3alpha in HL-60 cells lysate assessed as reduction of labeling of acyl-phosphate ATP probe at 100 nM.
Test [2] deals with T1, Inhibitor of nuclear factor kappa-B kinase subunit beta (Homo sapiens) (UniProt O14920).
T1 sequence (whole entry): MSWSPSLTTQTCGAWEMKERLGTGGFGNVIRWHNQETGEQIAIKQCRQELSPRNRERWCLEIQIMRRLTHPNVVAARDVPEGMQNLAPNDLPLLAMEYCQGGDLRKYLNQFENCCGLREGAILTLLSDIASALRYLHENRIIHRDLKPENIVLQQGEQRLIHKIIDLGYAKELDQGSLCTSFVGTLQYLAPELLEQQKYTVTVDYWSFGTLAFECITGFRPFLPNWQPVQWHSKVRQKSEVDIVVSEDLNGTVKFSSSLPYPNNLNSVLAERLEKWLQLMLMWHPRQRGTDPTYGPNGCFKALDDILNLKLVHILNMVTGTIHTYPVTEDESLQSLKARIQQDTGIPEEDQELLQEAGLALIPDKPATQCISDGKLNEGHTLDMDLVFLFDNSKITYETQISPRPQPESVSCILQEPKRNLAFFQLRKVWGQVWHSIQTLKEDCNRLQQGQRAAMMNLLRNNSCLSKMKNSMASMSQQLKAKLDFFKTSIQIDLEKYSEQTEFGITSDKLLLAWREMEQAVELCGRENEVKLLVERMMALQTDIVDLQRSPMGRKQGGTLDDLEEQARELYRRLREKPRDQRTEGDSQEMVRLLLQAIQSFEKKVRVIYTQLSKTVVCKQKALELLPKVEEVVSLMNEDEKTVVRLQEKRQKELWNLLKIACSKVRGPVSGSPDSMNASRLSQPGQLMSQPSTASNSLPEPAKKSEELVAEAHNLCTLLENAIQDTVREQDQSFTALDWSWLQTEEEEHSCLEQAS
Put plainly: Inhibition of human IKK-beta in HL-60 cells lysate assessed as reduction of labelling of acyl-phosphate ATP probe at 100 nM.

The target of test [3] is T2, Serine/threonine-protein kinase 3 (Homo sapiens) (UniProt Q13188).
T2 sequence (whole entry): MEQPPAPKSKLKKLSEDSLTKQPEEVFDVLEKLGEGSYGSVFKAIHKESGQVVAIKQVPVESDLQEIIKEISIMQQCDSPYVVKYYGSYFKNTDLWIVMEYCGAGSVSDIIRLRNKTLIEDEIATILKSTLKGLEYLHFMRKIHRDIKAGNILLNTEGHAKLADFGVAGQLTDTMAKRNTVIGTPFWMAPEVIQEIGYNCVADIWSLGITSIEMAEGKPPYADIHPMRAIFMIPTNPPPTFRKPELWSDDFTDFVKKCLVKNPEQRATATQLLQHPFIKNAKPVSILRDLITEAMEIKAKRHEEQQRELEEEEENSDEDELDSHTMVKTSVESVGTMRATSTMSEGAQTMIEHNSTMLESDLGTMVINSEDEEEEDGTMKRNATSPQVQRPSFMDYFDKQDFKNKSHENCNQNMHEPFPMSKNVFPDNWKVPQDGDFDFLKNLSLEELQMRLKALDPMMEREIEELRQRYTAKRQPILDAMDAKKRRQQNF
The test can be described thus: Inhibition of human MST2 in HL-60 cells lysate assessed as reduction of labeling of acyl-phosphate ATP probe at 100 nM.

Test [4] deals with DNA-dependent protein kinase catalytic subunit (Homo sapiens) (UniProt P78527). The test can be described thus: Inhibition of human DNAPK in HL-60 cells lysate assessed as reduction of labeling of acyl-phosphate ATP probe at 100 nM.
Chain of DNA-dependent protein kinase catalytic subunit (Homo sapiens) (P78527 whole entry): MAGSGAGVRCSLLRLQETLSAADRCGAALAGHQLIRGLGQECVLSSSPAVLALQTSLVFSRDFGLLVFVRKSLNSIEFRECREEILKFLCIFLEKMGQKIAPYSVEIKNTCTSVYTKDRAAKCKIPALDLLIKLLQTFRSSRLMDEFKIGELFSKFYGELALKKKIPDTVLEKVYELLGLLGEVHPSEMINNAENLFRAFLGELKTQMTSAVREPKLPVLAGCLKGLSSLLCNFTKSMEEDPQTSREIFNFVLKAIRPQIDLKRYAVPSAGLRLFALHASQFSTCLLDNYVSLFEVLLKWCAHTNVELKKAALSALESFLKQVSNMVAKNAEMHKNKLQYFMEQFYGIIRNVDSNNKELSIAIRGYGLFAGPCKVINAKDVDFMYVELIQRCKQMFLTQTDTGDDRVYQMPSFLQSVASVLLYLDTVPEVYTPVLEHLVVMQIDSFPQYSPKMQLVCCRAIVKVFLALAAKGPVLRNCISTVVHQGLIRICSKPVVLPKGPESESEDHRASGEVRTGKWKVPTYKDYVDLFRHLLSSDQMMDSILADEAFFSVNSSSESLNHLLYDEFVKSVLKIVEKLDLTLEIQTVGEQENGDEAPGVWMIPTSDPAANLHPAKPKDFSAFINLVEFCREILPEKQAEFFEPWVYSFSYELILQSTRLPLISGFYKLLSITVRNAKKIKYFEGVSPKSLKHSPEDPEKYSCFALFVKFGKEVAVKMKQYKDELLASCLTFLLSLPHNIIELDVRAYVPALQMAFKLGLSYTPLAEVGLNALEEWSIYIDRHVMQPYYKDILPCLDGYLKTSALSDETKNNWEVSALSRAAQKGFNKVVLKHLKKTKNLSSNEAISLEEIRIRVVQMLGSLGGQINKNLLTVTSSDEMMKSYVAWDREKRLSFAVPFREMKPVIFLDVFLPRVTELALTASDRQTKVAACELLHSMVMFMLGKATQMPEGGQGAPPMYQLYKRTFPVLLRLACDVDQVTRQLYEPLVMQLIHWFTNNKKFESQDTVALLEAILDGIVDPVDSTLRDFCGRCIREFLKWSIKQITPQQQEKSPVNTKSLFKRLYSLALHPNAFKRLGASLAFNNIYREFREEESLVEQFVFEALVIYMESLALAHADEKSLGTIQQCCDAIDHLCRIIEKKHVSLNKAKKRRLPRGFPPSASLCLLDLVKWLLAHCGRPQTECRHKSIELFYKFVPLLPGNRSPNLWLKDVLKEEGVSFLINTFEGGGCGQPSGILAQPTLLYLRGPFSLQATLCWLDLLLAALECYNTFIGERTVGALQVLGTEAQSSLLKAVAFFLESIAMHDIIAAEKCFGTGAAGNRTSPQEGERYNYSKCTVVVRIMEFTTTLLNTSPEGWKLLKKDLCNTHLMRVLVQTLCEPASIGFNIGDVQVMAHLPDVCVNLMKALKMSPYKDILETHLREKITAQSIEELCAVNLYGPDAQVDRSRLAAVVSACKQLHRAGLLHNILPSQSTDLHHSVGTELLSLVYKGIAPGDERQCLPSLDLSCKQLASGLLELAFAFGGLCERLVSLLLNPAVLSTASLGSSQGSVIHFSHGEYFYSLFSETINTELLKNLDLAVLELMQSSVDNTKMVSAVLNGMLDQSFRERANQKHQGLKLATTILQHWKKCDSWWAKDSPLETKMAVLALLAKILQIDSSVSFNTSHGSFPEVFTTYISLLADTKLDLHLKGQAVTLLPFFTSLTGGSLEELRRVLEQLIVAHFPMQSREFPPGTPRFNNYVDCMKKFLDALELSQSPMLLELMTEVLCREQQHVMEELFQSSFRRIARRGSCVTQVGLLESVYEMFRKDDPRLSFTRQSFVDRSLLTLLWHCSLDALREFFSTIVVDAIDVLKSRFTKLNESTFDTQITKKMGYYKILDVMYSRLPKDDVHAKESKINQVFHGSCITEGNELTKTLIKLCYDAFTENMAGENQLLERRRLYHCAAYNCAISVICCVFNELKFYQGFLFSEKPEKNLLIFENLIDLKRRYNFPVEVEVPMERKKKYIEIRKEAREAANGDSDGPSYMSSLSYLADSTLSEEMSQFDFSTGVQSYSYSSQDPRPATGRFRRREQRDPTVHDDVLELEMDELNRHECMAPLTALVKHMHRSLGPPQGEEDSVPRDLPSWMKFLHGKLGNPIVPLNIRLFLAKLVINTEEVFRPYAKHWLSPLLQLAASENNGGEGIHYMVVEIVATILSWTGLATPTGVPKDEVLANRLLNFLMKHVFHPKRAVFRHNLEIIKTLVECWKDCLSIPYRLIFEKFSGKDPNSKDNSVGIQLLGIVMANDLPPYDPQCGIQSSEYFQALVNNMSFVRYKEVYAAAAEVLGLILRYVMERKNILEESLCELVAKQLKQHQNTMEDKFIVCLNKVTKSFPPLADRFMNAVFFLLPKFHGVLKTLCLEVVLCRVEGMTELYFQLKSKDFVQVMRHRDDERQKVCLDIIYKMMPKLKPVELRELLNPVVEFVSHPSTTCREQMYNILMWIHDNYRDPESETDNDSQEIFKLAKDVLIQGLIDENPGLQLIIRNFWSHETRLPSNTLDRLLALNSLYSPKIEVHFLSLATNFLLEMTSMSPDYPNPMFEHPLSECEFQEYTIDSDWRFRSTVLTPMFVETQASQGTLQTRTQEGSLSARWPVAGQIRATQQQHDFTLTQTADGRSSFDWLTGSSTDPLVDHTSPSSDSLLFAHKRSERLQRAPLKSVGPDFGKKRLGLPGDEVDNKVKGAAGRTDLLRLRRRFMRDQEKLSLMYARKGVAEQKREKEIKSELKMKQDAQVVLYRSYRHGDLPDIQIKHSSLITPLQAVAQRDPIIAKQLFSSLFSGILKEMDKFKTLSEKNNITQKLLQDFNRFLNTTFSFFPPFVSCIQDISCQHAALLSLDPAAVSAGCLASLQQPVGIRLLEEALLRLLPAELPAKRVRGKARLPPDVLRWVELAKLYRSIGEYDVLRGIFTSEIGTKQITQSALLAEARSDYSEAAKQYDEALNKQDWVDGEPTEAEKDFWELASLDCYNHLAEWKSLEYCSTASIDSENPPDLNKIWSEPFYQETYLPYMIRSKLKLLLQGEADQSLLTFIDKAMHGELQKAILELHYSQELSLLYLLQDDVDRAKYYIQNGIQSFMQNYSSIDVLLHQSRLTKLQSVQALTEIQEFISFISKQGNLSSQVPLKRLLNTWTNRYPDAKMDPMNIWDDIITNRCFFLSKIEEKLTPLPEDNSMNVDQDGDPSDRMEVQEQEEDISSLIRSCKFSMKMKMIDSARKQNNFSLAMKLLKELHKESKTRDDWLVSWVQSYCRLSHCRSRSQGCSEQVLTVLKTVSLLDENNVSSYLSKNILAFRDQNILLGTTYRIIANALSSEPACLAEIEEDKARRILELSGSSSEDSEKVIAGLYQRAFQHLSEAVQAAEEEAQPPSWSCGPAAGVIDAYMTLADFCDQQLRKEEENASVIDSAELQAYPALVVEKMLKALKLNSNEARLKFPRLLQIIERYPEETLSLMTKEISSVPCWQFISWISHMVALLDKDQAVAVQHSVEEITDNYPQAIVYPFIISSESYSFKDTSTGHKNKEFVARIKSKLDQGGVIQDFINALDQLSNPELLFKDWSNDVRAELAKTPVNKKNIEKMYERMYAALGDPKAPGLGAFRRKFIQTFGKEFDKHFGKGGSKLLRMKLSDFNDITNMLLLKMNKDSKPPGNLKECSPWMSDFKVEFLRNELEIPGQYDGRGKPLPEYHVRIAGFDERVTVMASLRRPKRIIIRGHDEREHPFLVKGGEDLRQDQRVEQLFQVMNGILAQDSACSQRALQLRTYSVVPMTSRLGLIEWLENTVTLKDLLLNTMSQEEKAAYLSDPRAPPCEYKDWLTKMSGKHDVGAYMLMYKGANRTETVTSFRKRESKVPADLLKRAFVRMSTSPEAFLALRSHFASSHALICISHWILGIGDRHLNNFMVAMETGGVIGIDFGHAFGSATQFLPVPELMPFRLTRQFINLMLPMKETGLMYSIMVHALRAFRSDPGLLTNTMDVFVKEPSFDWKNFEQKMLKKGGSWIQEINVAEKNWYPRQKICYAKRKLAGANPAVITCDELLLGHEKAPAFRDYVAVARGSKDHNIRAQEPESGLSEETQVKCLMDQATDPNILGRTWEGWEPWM
Test [5] deals with Cyclin-dependent kinase 5 (Homo sapiens) (UniProt Q00535). Put plainly: Inhibition of human CDK5 in HL-60 cells lysate assessed as reduction of labeling of acyl-phosphate ATP probe at 100 nM.
Chain of Cyclin-dependent kinase 5 (Homo sapiens) (Q00535 whole entry, looked up): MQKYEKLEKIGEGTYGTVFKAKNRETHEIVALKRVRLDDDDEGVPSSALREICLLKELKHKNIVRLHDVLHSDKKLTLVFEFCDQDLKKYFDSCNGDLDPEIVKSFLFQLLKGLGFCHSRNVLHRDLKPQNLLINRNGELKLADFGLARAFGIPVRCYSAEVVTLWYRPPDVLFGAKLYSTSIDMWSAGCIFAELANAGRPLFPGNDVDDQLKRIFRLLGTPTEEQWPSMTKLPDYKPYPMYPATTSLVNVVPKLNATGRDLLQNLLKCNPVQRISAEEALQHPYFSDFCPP
For test [6], the target named is RAF proto-oncogene serine/threonine-protein kinase (Homo sapiens) (UniProt P04049). Put plainly: Inhibition of human RAF1 in HL-60 cells lysate assessed as reduction of labeling of acyl-phosphate ATP probe at 100 nM.
Chain of RAF proto-oncogene serine/threonine-protein kinase (Homo sapiens) (P04049 whole entry): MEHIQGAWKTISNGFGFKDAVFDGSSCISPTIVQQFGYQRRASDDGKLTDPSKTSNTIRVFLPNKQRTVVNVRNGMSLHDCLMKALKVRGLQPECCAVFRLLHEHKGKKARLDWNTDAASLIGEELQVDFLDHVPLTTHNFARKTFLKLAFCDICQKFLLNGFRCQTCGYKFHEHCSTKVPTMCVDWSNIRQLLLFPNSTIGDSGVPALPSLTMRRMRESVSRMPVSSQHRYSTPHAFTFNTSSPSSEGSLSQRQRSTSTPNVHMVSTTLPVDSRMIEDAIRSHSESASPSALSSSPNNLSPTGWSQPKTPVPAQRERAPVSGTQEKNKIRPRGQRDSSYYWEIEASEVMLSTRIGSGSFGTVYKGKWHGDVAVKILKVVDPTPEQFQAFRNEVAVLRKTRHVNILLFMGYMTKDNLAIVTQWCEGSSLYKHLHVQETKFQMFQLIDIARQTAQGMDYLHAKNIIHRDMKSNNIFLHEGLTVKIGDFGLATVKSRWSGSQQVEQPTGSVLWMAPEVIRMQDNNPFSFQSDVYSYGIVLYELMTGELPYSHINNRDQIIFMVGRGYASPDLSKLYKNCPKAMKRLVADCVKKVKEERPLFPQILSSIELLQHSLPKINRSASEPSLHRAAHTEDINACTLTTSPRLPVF
For test [7], the target named is T3, Receptor-interacting serine/threonine-protein kinase 1 (Homo sapiens) (UniProt Q13546).
T3 sequence (whole entry): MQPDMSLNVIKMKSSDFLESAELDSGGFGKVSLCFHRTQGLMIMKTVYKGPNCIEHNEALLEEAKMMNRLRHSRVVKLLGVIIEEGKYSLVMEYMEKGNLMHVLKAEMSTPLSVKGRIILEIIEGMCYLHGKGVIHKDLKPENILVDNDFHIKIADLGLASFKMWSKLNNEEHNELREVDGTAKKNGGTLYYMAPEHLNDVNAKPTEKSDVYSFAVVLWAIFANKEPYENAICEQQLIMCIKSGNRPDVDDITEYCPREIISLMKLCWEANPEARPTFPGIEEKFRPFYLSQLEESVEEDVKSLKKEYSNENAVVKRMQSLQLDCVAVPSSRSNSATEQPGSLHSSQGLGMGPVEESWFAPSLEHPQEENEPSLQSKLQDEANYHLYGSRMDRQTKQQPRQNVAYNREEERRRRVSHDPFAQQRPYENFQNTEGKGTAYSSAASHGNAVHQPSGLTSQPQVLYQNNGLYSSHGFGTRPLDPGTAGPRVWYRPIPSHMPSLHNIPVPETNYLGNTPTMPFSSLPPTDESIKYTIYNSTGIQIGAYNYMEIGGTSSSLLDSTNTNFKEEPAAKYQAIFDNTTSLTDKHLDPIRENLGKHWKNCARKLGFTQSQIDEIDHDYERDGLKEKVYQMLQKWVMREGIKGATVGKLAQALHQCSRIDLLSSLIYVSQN
Put plainly: Inhibition of human RIPK1 in HL-60 cells lysate assessed as reduction of labeling of acyl-phosphate ATP probe at 100 nM.

Among the data in ChEMBL document CHEMBL1938230, “6-Position optimization of tricyclic 4-quinolone-based inhibitors of glycogen synthase kinase-3β: discovery of nitrile derivatives with picomolar potency” (Bioorg Med Chem Lett, 2012) are inhibition values, retold here.

In general, inhibition refers to the relative decrease from the control value, in per cent.

Turning to `C[C@H]1COc2c(NCCCc3ccccn3)c(F)c(N)c3c(=O)c(C#N)cn1c23`, the inhibition in test [1] is above 99.5%; in test [2], below 35%; in test [3], below 35%; in test [4] it was below 35%; in test [5], below 35%; in test [6], below 35%. The inhibition in test [7] was below 35%.
With `C[C@H]1COc2c(NCCCc3ccccn3)c(F)c(N)c3c(=O)c(C(=O)O)cn1c23`, the inhibition is 94.3% in test [1]; below 35% in test [2]; below 35% in test [3]; below 35% in test [4]; below 35% in test [5]; below 35% in test [6]. In addition, the inhibition in test [7] was below 35%.
Take `C[C@H]1COc2c(NCCCn3cccn3)c(F)c(N)c3c(=O)c(C(=O)O)cn1c23`: the inhibition in test [1] is 95.2%; in test [2] it was below 35%; in test [3], below 35%; in test [4] it was below 35%; in test [5] it was below 35%; in test [6], below 35%. For the same compound, the inhibition in test [7] was below 35%.
For `C[C@H]1COc2c(NCCCn3cccn3)c(F)c(N)c3c(=O)c(C#N)cn1c23`, the inhibition is above 99.5% in test [1]; below 35% in test [2]; below 35% in test [3]; below 35% in test [4]; below 35% in test [5]; below 35% in test [6]. Further, the inhibition in test [7] was below 35%.
